From PubChem BioAssay (NCI) come the findings set out here.

Structures are written as SMILES.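 Values below derive from 48-hour exposures of cells grown in 96-well plates, with endpoints linearly interpolated between the two concentrations bracketing the appropriate inhibition level. TGI marks complete inhibition of growth.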

For one experiment, the system named is SF-539 CNS. The experiment can be described thus: NCI anticancer screen, dose series, 48 h.
`CC(=O)C(CN(CC(C)C)CC(C)C)C(c1ccccc1)c1c(O)c2ccccc2oc1=O` (configuration not stated) showed a TGI above 100 µM.

The next experiment deals with KM12 colon. The experiment can be described thus: NCI anticancer screen, dose series, 48 h.
With `COc1cccc(NC(=O)CSc2nnc(-c3ccc(NC(C)=O)cc3)o2)c1`, the TGI was above 100 µM.
With `CCn1c2ccccc2c2ccc3c(c21)C(=O)C=CC3=O`, the TGI was 27.4 µM.
On the same count and under the same terms, with `O=c1nc(NC2CCCCO2)ccn1CCO` (configuration not stated) the figure was above 100 µM; with `COC(=O)c1onc(-c2c(OC)cc(OC)cc2OC)c1C(=O)OC`, above 100 µM; with `CCCP1(=O)C=C(C)C(=C(Cl)Cl)C(C)=C1` (configuration not stated), 67.9 µM.
The same measure, in the same setting: the same measure for `COc1cc(C2SCC(=O)N2c2cccc(Cl)c2)cc(OC)c1OC` (configuration not stated): above 100 µM; for `CCCCCCCOc1ccc(/C=C\c2cc[n+](CCCCCCCC[n+]3ccc(/C=C\c4ccc(OCCCCCCC)cc4)cc3)cc2)cc1`: 28.2 µM.
Same read-out and setting: with `NC(N)=NCCCC(NC(=O)c1cccc2c(=O)c3ccccc3[nH]c12)C(=O)O` (configuration not stated) the figure was above 100 µM.
For `c1ccc2c(c1)C1CCCCCC21N1CCOCC1` (configuration not stated), the TGI is above 100 µM.
Still for that read-out and setting: with `COc1cccc(OC)c1C(=O)OCc1ccccc1` the figure was above 100 µM; with `O=C(CSc1nnc(Cc2ccccc2)o1)Nc1ccccc1`, above 100 µM.
The same measure, in the same setting: the same measure for `CC(=O)C1C(=O)C(=O)N(c2cccc([N+](=O)[O-])c2)C1=O` (configuration not stated): above 100 µM; for `Cc1ccc(/C=C/C(=O)C(C)(C)CN2CCCCC2)cc1`: 13.4 µM; for `O=C1OC(Cc2ccccc2)(N2CCCC2=O)C1c1ccccc1` (configuration not stated): above 100 µM.
On to `CC1(C)OC(=O)C(C#N)=C1/C=C/c1coc2ccc(Cl)cc2c1=O`, for which the TGI was above 100 µM.

A further experiment deals with OVCAR-4 ovarian. The experiment can be described thus: NCI anticancer screen, dose series, 48 h.
Molecule `COc1cccc(NC(=O)CSc2nnc(-c3ccc(NC(C)=O)cc3)o2)c1` returned a TGI above 100 µM.
Same read-out and setting: the same measure for `CCn1c2ccccc2c2ccc3c(c21)C(=O)C=CC3=O`: 14.2 µM; for `O=c1nc(NC2CCCCO2)ccn1CCO` (configuration not stated): above 100 µM.
The same measure, in the same setting: the same measure for `COC(=O)c1onc(-c2c(OC)cc(OC)cc2OC)c1C(=O)OC`: above 100 µM; for `CCCP1(=O)C=C(C)C(=C(Cl)Cl)C(C)=C1` (configuration not stated): above 100 µM.
The same measure, in the same setting: with `COc1cc(C2SCC(=O)N2c2cccc(Cl)c2)cc(OC)c1OC` (configuration not stated) the figure was above 100 µM.
`COC1/C=C/C(C)C(C(C)C(OC)C(C)CCC(=O)C(C)C(C/C=C/N(C)C=O)OC)OC(=O)C=CC2OC2(C)CC(OC)C(OC)C2=CC(=O)O[C@@H](C(C)C(OC)CC(OC)/C=C/C(C)C(O)C1)[C@H]2O` (some centres not stated) displayed a TGI above 1.24 µM.
With `CCCCCCCOc1ccc(/C=C\c2cc[n+](CCCCCCCC[n+]3ccc(/C=C\c4ccc(OCCCCCCC)cc4)cc3)cc2)cc1`, the TGI is above 100 µM.
Still for that read-out and setting: with `NC(N)=NCCCC(NC(=O)c1cccc2c(=O)c3ccccc3[nH]c12)C(=O)O` (configuration not stated) the figure was above 100 µM; with `c1ccc2c(c1)C1CCCCCC21N1CCOCC1` (configuration not stated), above 100 µM.
Still for that read-out and setting: the same measure for `COc1cccc(OC)c1C(=O)OCc1ccccc1`: above 100 µM; for `O=C(CSc1nnc(Cc2ccccc2)o1)Nc1ccccc1`: above 100 µM.
Still for that read-out and setting: with `CC(=O)C1C(=O)C(=O)N(c2cccc([N+](=O)[O-])c2)C1=O` (configuration not stated) the figure was above 100 µM; with `Cc1ccc(/C=C/C(=O)C(C)(C)CN2CCCCC2)cc1`, 22.9 µM; with `O=C1OC(Cc2ccccc2)(N2CCCC2=O)C1c1ccccc1` (configuration not stated), above 100 µM.
As to `CC(=O)C(CN(CC(C)C)CC(C)C)C(c1ccccc1)c1c(O)c2ccccc2oc1=O` (configuration not stated), the TGI was above 100 µM.
Still for that read-out and setting: the same measure for `CC1(C)OC(=O)C(C#N)=C1/C=C/c1coc2ccc(Cl)cc2c1=O`: 55 µM.

In another experiment the test system is OVCAR-5 ovarian. Briefly: NCI anticancer screen, dose series, 48 h.
Turning to `COc1cccc(NC(=O)CSc2nnc(-c3ccc(NC(C)=O)cc3)o2)c1`, the TGI was above 100 µM.
`Clc1ccc(Nc2nc3ccccc3nc2-c2cccs2)cc1Cl` displayed a TGI above 100 µM.
In turn, `CCn1c2ccccc2c2ccc3c(c21)C(=O)C=CC3=O` returned a TGI of 44.1 µM.
The same measure, in the same setting: the same measure for `O=c1nc(NC2CCCCO2)ccn1CCO` (configuration not stated): above 100 µM.
Regarding `COC(=O)c1onc(-c2c(OC)cc(OC)cc2OC)c1C(=O)OC`, the TGI was above 100 µM.
Still for that read-out and setting: with `CCCP1(=O)C=C(C)C(=C(Cl)Cl)C(C)=C1` (configuration not stated) the figure was above 100 µM; with `COc1cc(C2SCC(=O)N2c2cccc(Cl)c2)cc(OC)c1OC` (configuration not stated), above 100 µM.
Molecule `COC1/C=C/C(C)C(C(C)C(OC)C(C)CCC(=O)C(C)C(C/C=C/N(C)C=O)OC)OC(=O)C=CC2OC2(C)CC(OC)C(OC)C2=CC(=O)O[C@@H](C(C)C(OC)CC(OC)/C=C/C(C)C(O)C1)[C@H]2O` (some centres not stated) gave a TGI of 0.0464 µM.
`CCCCCCCOc1ccc(/C=C\c2cc[n+](CCCCCCCC[n+]3ccc(/C=C\c4ccc(OCCCCCCC)cc4)cc3)cc2)cc1` gave a TGI of 46.5 µM.
Still for that read-out and setting: with `NC(N)=NCCCC(NC(=O)c1cccc2c(=O)c3ccccc3[nH]c12)C(=O)O` (configuration not stated) the figure was above 100 µM; with `c1ccc2c(c1)C1CCCCCC21N1CCOCC1` (configuration not stated), above 100 µM; with `O=C(CSc1nnc(Cc2ccccc2)o1)Nc1ccccc1`, above 100 µM.
Same read-out and setting: the same measure for `CC(=O)C1C(=O)C(=O)N(c2cccc([N+](=O)[O-])c2)C1=O` (configuration not stated): above 100 µM.
Turning to `Cc1ccc(/C=C/C(=O)C(C)(C)CN2CCCCC2)cc1`, the TGI turned out to be 30 µM.
Still for that read-out and setting: with `O=C1OC(Cc2ccccc2)(N2CCCC2=O)C1c1ccccc1` (configuration not stated) the figure was above 100 µM; with `CC(=O)C(CN(CC(C)C)CC(C)C)C(c1ccccc1)c1c(O)c2ccccc2oc1=O` (configuration not stated), above 100 µM; with `CC1(C)OC(=O)C(C#N)=C1/C=C/c1coc2ccc(Cl)cc2c1=O`, above 100 µM.

A further experiment deals with SK-OV-3 ovarian. The experiment can be described thus: NCI anticancer screen, dose series, 48 h.
As to `COc1cccc(NC(=O)CSc2nnc(-c3ccc(NC(C)=O)cc3)o2)c1`, the TGI is above 100 µM.
Still for that read-out and setting: with `Clc1ccc(Nc2nc3ccccc3nc2-c2cccs2)cc1Cl` the figure was above 100 µM.
The same measure, in the same setting: the same measure for `CCn1c2ccccc2c2ccc3c(c21)C(=O)C=CC3=O`: 34 µM; for `O=c1nc(NC2CCCCO2)ccn1CCO` (configuration not stated): above 100 µM.
`COC(=O)c1onc(-c2c(OC)cc(OC)cc2OC)c1C(=O)OC` gave a TGI above 100 µM.
On to `COc1cc(C2SCC(=O)N2c2cccc(Cl)c2)cc(OC)c1OC` (configuration not stated), for which the TGI was above 100 µM.
On the same count and under the same terms, with `COC1/C=C/C(C)C(C(C)C(OC)C(C)CCC(=O)C(C)C(C/C=C/N(C)C=O)OC)OC(=O)C=CC2OC2(C)CC(OC)C(OC)C2=CC(=O)O[C@@H](C(C)C(OC)CC(OC)/C=C/C(C)C(O)C1)[C@H]2O` (some centres not stated) the figure was 0.0667 µM; with `CCCCCCCOc1ccc(/C=C\c2cc[n+](CCCCCCCC[n+]3ccc(/C=C\c4ccc(OCCCCCCC)cc4)cc3)cc2)cc1`, 57.8 µM; with `NC(N)=NCCCC(NC(=O)c1cccc2c(=O)c3ccccc3[nH]c12)C(=O)O` (configuration not stated), above 100 µM.
On the same count and under the same terms, the same measure for `c1ccc2c(c1)C1CCCCCC21N1CCOCC1` (configuration not stated): above 100 µM; for `COc1cccc(OC)c1C(=O)OCc1ccccc1`: above 100 µM.
`O=C(CSc1nnc(Cc2ccccc2)o1)Nc1ccccc1` gave a TGI above 100 µM.
On the same count and under the same terms, with `CC(=O)C1C(=O)C(=O)N(c2cccc([N+](=O)[O-])c2)C1=O` (configuration not stated) the figure was above 100 µM.
Same read-out and setting: the same measure for `Cc1ccc(/C=C/C(=O)C(C)(C)CN2CCCCC2)cc1`: 26.3 µM; for `O=C1OC(Cc2ccccc2)(N2CCCC2=O)C1c1ccccc1` (configuration not stated): above 100 µM.
`CC(=O)C(CN(CC(C)C)CC(C)C)C(c1ccccc1)c1c(O)c2ccccc2oc1=O` (configuration not stated) returned a TGI above 100 µM.
The molecule `CC1(C)OC(=O)C(C#N)=C1/C=C/c1coc2ccc(Cl)cc2c1=O` displayed a TGI of 69.7 µM.
